Experimental data as given in the NIST ThermoML archive (doi:10.1021/acs.jced.9b00752).

Assay: mn = molality of the nth substance listed, in mol/kg
Settings: 100 kPa, Liquid, Vibrating tube method

O=C(O)[C@@H]1CCCN1 [L-proline] + O
mass density [kg/m3]
Settings	278.65 K	279.15 K	279.65 K	280.15 K	280.65 K	281.15 K	281.65 K	282.15 K	282.65 K	283.15 K
m1 = 0.0132	1000.41	1000.39	1000.38	1000.35	1000.33	1000.3	1000.27	1000.23	1000.19	1000.15
m1 = 0.0326	1001.08	1001.06	1001.04	1001.02	1000.99	1000.97	1000.93	1000.89	1000.85	1000.81
m1 = 0.0542	1001.81	1001.79	1001.77	1001.75	1001.72	1001.69	1001.66	1001.62	1001.57	1001.53
m1 = 0.0692	1002.32	1002.3	1002.27	1002.25	1002.22	1002.19	1002.15	1002.12	1002.07	1002.03
m1 = 0.0808	1002.71	1002.7	1002.67	1002.64	1002.61	1002.59	1002.55	1002.5	1002.46	1002.41
m1 = 0.1014	1003.42	1003.4	1003.37	1003.35	1003.31	1003.28	1003.25	1003.2	1003.16	1003.11
m1 = 0.1196	1004.08	1004.06	1004.03	1004	1003.97	1003.94	1003.9	1003.86	1003.81	1003.76
m1 = 0.1326	1004.49	1004.47	1004.44	1004.41	1004.38	1004.35	1004.31	1004.26	1004.21	1004.16
m1 = 0.1555	1005.24	1005.21	1005.19	1005.15	1005.12	1005.09	1005.04	1005	1004.95	1004.9
m1 = 0.1568	1005.37	1005.35	1005.32	1005.29	1005.25	1005.22	1005.18	1005.13	1005.08	1005.03
m1 = 0.1835	1006.18	1006.15	1006.12	1006.09	1006.05	1006.02	1005.98	1005.93	1005.88	1005.83
m1 = 0.2076	1006.97	1006.94	1006.91	1006.87	1006.83	1006.8	1006.75	1006.7	1006.65	1006.6
m1 = 0.2212	1007.63	1007.6	1007.57	1007.53	1007.5	1007.46	1007.41	1007.36	1007.31	1007.26
